For data set [1], the system named is HCV replicon. The data set can be described thus: microbe, parasite or virus in culture. To be noted: Hepatitis C virus, 48 h, read-out: Replicon IC50s μM. The format is cell-based.
Data set [2] relates to wild-type poliovirus (WT-PV). It is filed as cell-based. The settings on record: HeLa cells, MOI 0.1, compound for one day, decrease of cytopathic effect.
Data set [3] has as its system cap-dependent translation. The data set can be described thus: Western blot of Fluc protein in pLuc cells (cap-dependent translation). It is filed as cell-based, human. To be noted: 20 hours, data not shown.

Some results are limits rather than exact numbers.

On to `CN1CCN(C(=O)c2sc3nc4c(c(C(F)(F)F)c3c2N)CCCCC4)CC1` [Compound 5], for which the IC50 in data set [1] is > 2 µM. For the same compound, in data set [2], the “WTPV CPE (1.2 μM)” value was found to be 0, the “WTPV CPE (11.1 μM)” value is 1 (A “1” in the WT-PV CPE columns indicates that the CPE (cytopathic effect) is decreased by 20-50%.) and the “WTPV CPE (100 μM)” value is reported as 2 (A “2” in the WT-PV CPE columns indicates that the CPE is decreased by 50-75%.).
In the case of `Cc1nc2sc(-c3ncc(-c4ccccc4)o3)c(N)c2c(C)c1C` [Compound 26], the melting point is 284 to 285 °C. Also, the IC50 in data set [1] was in the range of 0.5 to 2 µM.
Compound `CCc1c(C)nc2sc(C(C)=O)c(-n3cccc3)c2c1C` [Compound 27] registered a melting point of 145 to 147 °C. Further, in data set [1], the IC50 is > 2 µM.
Consider `Nc1c(C(=O)Nc2ccc(C(F)(F)F)cc2)sc2nc3c(cc12)CCCCC3` [Compound 29], for which, in data set [1], the IC50 was > 2 µM. In addition, in data set [2], the “WTPV CPE (1.2 μM)” value is on record as 0, the “WTPV CPE (11.1 μM)” value is 1 (A “1” in the WT-PV CPE columns indicates that the CPE (cytopathic effect) is decreased by 20-50%.) and the “WTPV CPE (100 μM)” value is on record as 2 (A “2” in the WT-PV CPE columns indicates that the CPE is decreased by 50-75%.).
Take `CCc1c(C)nc2sc(N)c(C#N)c2c1C` [Compound 35, 2-amino-5-ethyl-4,6-dimethylthieno[2,3-b]pyridine-3-carbonitrile]: the melting point fell in the range of 223 to 225 °C. For the same compound, the IC50 in data set [1] was > 2 µM. In addition, in data set [2], the “WTPV CPE (1.2 μM)” value was 0, the “WTPV CPE (11.1 μM)” value was 1 (A “1” in the WT-PV CPE columns indicates that the CPE (cytopathic effect) is decreased by 20-50%.) and the “WTPV CPE (100 μM)” value is reported as 2 (A “2” in the WT-PV CPE columns indicates that the CPE is decreased by 50-75%.).
In the case of `CCc1c(C)nc2sc(C(=O)OC(C)(C)C)c(-c3ccc4c(c3)OCO4)c2c1C` [Compound 39], the melting point was 151 to 152 °C. Also, the IC50 in data set [1] is > 2 µM.
In the same order, the values of `CCc1c(C)nc2sc(C(=O)OC(C)(C)C)c(-c3ccoc3)c2c1C` [Compound 40] are 111 to 111.5 °C and > 2 µM.
In the same order, the values of `CCc1c(C)nc2sc(C(=O)OC(C)(C)C)c(-c3ccc(Cl)cc3)c2c1C` [Compound 42] are 117 to 118 °C and > 2 µM.
In the same order, the values of `CCc1c(C)nc2sc(C(=O)OC(C)(C)C)c(-c3cccc(Cl)c3)c2c1C` [Compound 43] are 152.1 to 152.6 °C and > 2 µM.
`CC(C)(C)OC(=O)c1sc2nc3c(c(-c4cccs4)c2c1N)CCCCC3` [Compound 45, tert-butyl 3-amino-4-thiophen-2-yl-6,7,8,9-tetrahydro-5H-1-thia-10-aza-cyclohepta[f]indene-2-carboxylate] displayed a melting point of 202.9 to 203.1 °C. For the same compound, in data set [1], the IC50 is > 2 µM.
In the same order, the values of `CCOC(=O)c1sc2nc3c(c(-c4ccco4)c2c1N)CCC3` [Compound 46] are 157.6 to 157.7 °C and > 2 µM.
The compound `CN1CCN(C(=O)c2sc3nc4c(c(-c5cccs5)c3c2N)CCCCC4)CC1` [Compound 47] displayed a melting point of 115 to 118 °C. Moreover, in data set [1], the IC50 was > 2 µM.
The corresponding values for `CC(C)(C)NC(=O)c1sc2nc3c(c(-c4cccs4)c2c1N)CCCCC3` [Compound 48] are 184 to 185 °C and > 2 µM.
The corresponding values for `CCc1c(C)nc2sc(NC(=O)C3CCCC3)c(C#N)c2c1C` [Compound 49, cyclopentanecarboxylic acid (3-cyano-5-ethyl-4,6-dimethyl-thieno[2,3-b]pyridin-2-yl)amide] are 228 to 230 °C and > 2 µM.
Consider `CCc1c(C)nc2sc(NC(=O)C(C)(C)C)c(C#N)c2c1C` [Compound 50], for which the melting point was 164 to 166 °C. Moreover, the IC50 in data set [1] was > 2 µM. For the same compound, in data set [2], the “WTPV CPE (1.2 μM)” value is reported as 0, the “WTPV CPE (11.1 μM)” value was 1 (A “1” in the WT-PV CPE columns indicates that the CPE (cytopathic effect) is decreased by 20-50%.) and the “WTPV CPE (100 μM)” value is 3 (A “3” in the WT-PV CPE columns indicates that the CPE is decreased by 75-100%.).
In turn, `CCc1c(C)nc2sc(NC(=O)C(C)C)c(C#N)c2c1C` [Compound 53] gave a melting point of 189 to 190 °C. The IC50 in data set [1] was > 2 µM.
The corresponding values for `CCc1c(C)nc2sc(S(C)(=O)=O)c(C#N)c2c1C` [Compound 54] are 219 to 220 °C and > 2 µM.
In the same order, the values of `Cc1nc2sc(C(=O)OC(C)(C)C)c(N)c2c(C)c1-c1ccccc1` [Compound 55] are 212 to 213 °C and > 2 µM.
The compound `N#Cc1c(C(=O)Nc2ccccc2)sc2nc3c(c(-c4cccs4)c12)CCCCC3` [Compound 57] displayed a melting point of 215.3 to 215.7 °C. Besides, in data set [1], the IC50 is > 2 µM.
In the same order, the values of `N#Cc1c(NC(=O)c2cccc(C(F)(F)F)c2)sc2nc3c(c(-c4cccs4)c12)CCCCC3` [Compound 58, N-(3-cyano-4-thiophen-2-yl-6,7,8,9-tetrahydro-5H-1-thia-10-aza-cyclohepta[f]inden-2-yl)-3-trifluoromethyl-benzamide] are 226.9 to 227.1 °C and > 2 µM.
With `N#Cc1c(Br)sc2nc3c(c(-c4cccs4)c12)CCCCC3` [Compound 60], the melting point was 196.4 to 196.7 °C. In addition, the IC50 in data set [1] is > 2 µM.
Turning to `N#Cc1cccc(-c2sc3nc4c(c(-c5cccs5)c3c2C#N)CCCCC4)c1` [Compound 61], the melting point fell in the range of 159 to 162 °C. In addition, the IC50 in data set [1] was > 2 µM.
Compound `N#Cc1c(-c2ccc3c(c2)OCO3)sc2nc3c(c(-c4cccs4)c12)CCCCC3` [Compound 62] gave a melting point of 210 to 211 °C. Also, the IC50 in data set [1] was > 2 µM.
Turning to `COc1ccc(-c2sc3nc4c(c(-c5cccs5)c3c2C#N)CCCCC4)cc1` [Compound 63, 2-(4-methoxyphenyl)-4-thiophen-2-yl-6,7,8,9-tetrahydro-5H-1-thia-10-aza-cyclohepta[f]indene-3-carbonitrile], the melting point was 179.2 to 179.6 °C. Also, in data set [1], the IC50 is > 2 µM.
In the same order, the values of `CCc1c(C)nc2sc(C(=O)SC(C)(C)C)cc2c1C` [Compound 65] are 109.6 to 110.2 °C and 0.5 to 2 µM.
In the same order, the values of `COCCN1CCN(CCOc2c(C)nc3sc(C(=O)OC(C)(C)C)c(N)c3c2C)CC1` [Compound 66] are 79 to 81 °C and > 2 µM.
In the same order, the values of `Cc1nc2sc(C(=O)OC(C)(C)C)c(N)c2c(C)c1OCCN1CCOCC1` [Compound 67, t-butyl 3-amino-4,6-dimethyl-5-(2-morpholin-4-yl-ethoxy)-thieno[2,3-b]pyridine-2-carboxylate] are 102 to 104 °C and > 2 µM.
`Cc1nc2sc(C(=O)OC(C)(C)C)c(N)c2c(C)c1OCCN1CCN(C)CC1` [Compound 71]: the melting point fell in the range of 155.4 to 155.5 °C. In addition, the IC50 in data set [1] is > 2 µM.
With `COc1ccc(C[C@H](N)C(=O)N[C@H]2[C@@H](O)[C@H](n3cnc4c(N(C)C)ncnc43)O[C@@H]2CO)cc1` [puromycin], the “cap-dependent protein production (luciferase reporter protein level, Western blot)” value in data set [3] was “inhibited”.

Source of the values: patent US7645881B2, “Methods for treating hepatitis C” (PTC Therapeutics, Inc., priority 2004, dated 2010).
